{"source": "patent US12291513B2", "about": "“Pyridinium derivatives made by hydrothermal synthesis for use as anolytes in electrochemical cells” (Wisconsin Alumni Research Foundation, priority 2021, dated 2025)", "key": {"Degradation in 1M KOH": {"assay": "Degradation in 1M KOH", "assay_type": "physicochemical"}, "[1]": {"assay": "Symmetric, volumetrically-unbalanced flow cell cycling", "conditions": "sixteen days (150 cycles) continuous charge-discharge, N2 glovebox, first redox process", "protocol": "The RFB measurements were carried out in a custom-made zero-gap device previously reported by Li et al. (Li, W. et al., Chem 2018, 4 (11), 2644-2657; and Li, W. et al., Adv. Energy Mater. 2019, 9 (31), 1900918.) Both symmetric flow cell and RFB full cell measurements were conducted using a Bio-Logic SP-200 potentiostat at room temperature (˜20° C.). In symmetric cells, 0.1 M of active species in 1 M NaCl (pre-charged to 50% SOC of the first electron reduction using FcNCl as the counter cathode in bulk electrolysis) was utilized on both sides with the capacity limiting side (CLS) consisting of 5 mL of solution and the non-capacity limiting side (NCLS) consisting of 10 mL of solution separated by a Selemion AMV anion-exchange membrane (Asahi Glass Co.). The neat Dex-Vi full RFB cell cycling was performed using the product from the Dex-Vi synthesis directly without any purification. The neat product was diluted to roughly 0.1 M to pair with a 0.2 M BTMAP-Fc counter catholyte in excess capacity separated by an AMV membrane. Both the anolyte and catholyte were 5 mL in total volume with 0.5 M NaCl supporting electrolyte. […]"}}, "data": [{"smiles": "C[N+](C)(C)CC(O)C[n+]1ccc(-c2cc[n+](CC(O)C[N+](C)(C)C)cc2)cc1", "note": "(centres unmarked) [Dex-Vi, bis(3-trimethylammonio-2-hydroxy)propyl viologen tetrachloride]", "values": [{"measurement": "Degradation in 1M KOH, k", "setting": "Degradation in 1M KOH", "result": "3.22e-06", "unit": "s⁻¹"}, {"measurement": "decay in symmetric flow cell", "setting": "[1]", "result": "no decay"}]}]}
